Common to all, as to type: in vivo
The nature of series [1]: Distribution of ICG administered to normal mice via airway and fluorescence duration. The procedure: It was investigated, when Indocyanine green (ICG) is administered via the airway of a subject through respiration, whether the lungs are stained properly, organs other than the lungs are also affected, how long the staining lasts, etc. More specifically, 0.25 mg/mL ICG were administered to normal mice for 10 minutes through respiration using the SciReq nebulizer, as shown in FIG. 1a. The, the ICG (2.5 mg/kg)-administered mice were sacrificed 10 minutes, 1 hour, 3 hours, 6 hours and 24 hours later. After extracting the brain, lung, liver, kidney and spleen, fluorescence images were acquired and fluorescence signal intensity was measured using a fluorescence imaging system.

For series [2], the system named is VX2 carcinoma. Nature of the series: Identification of boundary of cancer tissue in lung tumor-induced rabbit model through airway administration of ICG. The settings on record: ICG 0.75 mg/mL inhaled 4 minutes. Here is the method: (§1) In Example 1, it was confirmed that the ICG administered via the airway through respiration stained the lung tissue quickly and emitted strong fluorescence with little effect on other organs. Then, it was investigated whether the airway administration of ICG can be used to distinguish cancer tissue from normal tissue by staining only the normal tissue in a lung tumor animal model. Specifically, a lung tumor-induced rabbit model was prepared as shown in FIG. 2 by transplanting VX2 carcinoma into the lungs of a rabbit. The rabbit was made to inhale ICG (0.75 mg/mL) for 4 minutes by connecting a nebulizer to a ventilator. 1 hour later, the chest of the rabbit was cut open and the fluorescence images of the lung were acquired using a NIR imaging system. After conducting surgery for pulmonary nodules, the excised lung tissue was prepared into 10 μm-thick cryosections and optical images were acquired using a NIR microscope. Then, the lung tissue was stained with H&E, and the boundary of cancer tissue was observed histologically.

A further series concerns lung cancer cells. Kind of series: Distribution of inhaled ICG in mouse lung cancer model with GFP-labeled lung cancer cells. The following applies: fluorescence imaging. An excerpt:
In order to investigate the boundary of cancer cells and ICG distribution more accurately, a mouse lung cancer model was established by labeling lung cancer cells with GFP and the distribution of ICG administered through respiration was investigated by fluorescence imaging.

In series [3] the test system is VX2 carcinoma. Nature of the series: Cancer detection rate (TMDE) in lung tumor-induced rabbit model depending on concentration of administered ICG. Here is the method: as §1
It was investigated whether the desired effect can be achieved with a less amount of ICG administered by airway administration as compared to intravenous administration of ICG. Specifically, after administering ICG at different concentrations (0.1 mg/kg, 0.25 mg/kg, 0.5 mg/kg, 1 mg/kg) in the same manner as in Example 2 to the lung tumor-induced rabbit model of Example 2, the fluorescence images of the lung were acquired and TMDE (tumor margin detection efficiency) depending on the ICG concentration was compared.

Series [4] deals with VX2 carcinoma. Kind of series: Cancer detection rate (TMDE) in lung tumor-induced rabbit model depending on administration route of ICG. The following applies: 0.25 mg/kg ICG through respiration vs 5 mg/kg intravenous, TMDE at 1, 3, 6, 24 hours. Here is the method: as §1, with “Then, the lung tissue was stained with H&E, and the boundary of cancer tissue was observed histologically.” left out
Specifically, after extracting the lungs from a lung tumor-induced rabbit model to which 0.25 mg/kg ICG was administered through respiration in the same manner as in Example 2 and a lung tumor-induced rabbit model to which 5 mg/kg ICG was administered intravenously, fluorescence images were acquired and TMDE was quantitated 1 hour later, 3 hours later, 6 hours later and 24 hours later using a NIR imaging system.

The test system of another series is lung tumor. Kind of series: Visualization of lesion in human lungs through administration of ICG via bronchus. The procedure:
As confirmed in Examples 2-4, remarkably high cancer detection rate could be achieved through airway administration of ICG for lung tumor even with a less amount of ICG. […] Specifically, the lobar bronchi of six lung tumor patients who received surgery for pulmonary nodules in Korea University Guro Hospital were connected with tubes and 0.75 mg/mL ICG was administered for 4 minutes using a nebulizer. Then, fluorescence images were acquired using a NIR imaging system.

Where [5] appears, read: airway administration by nebulizer, ICG 2.5 mg/kg.
The mark [6] stands for this setting: airway administration, extracted organs, fluorescence imaging.
The mark [7] stands for this setting: six lung tumor patients, 0.75 mg/mL ICG via lobar bronchus 4 minutes.

“And” between values parts separate entries of the source, which are not always exact repeats. Equal values may be shown once.

The text below walks through data of patent publication US11883509B2, “Pharmaceutical composition for inhalation administration for labeling pulmonary tumorous lesion, containing fluorescent contrast agent as active ingredient” (KOREA UNIVERSITY RESEARCH AND BUSINESS FOUNDATION, priority 2018, dated 2024).

`CC1(C)C(/C=C/C=C/C=C/C=C2\N(CCCCS(=O)(=O)O)c3ccc4ccccc4c3C2(C)C)=[N+](CCCCS(=O)(=O)[O-])c2ccc3ccccc3c21` [ICG, Indocyanine green]: in series [1] (setting [5]), the “time after administration at which fluorescence is emitted in the lungs” value is at most 10 min, the “time after administration at which fluorescence signals could still be detected” value is at least 24 h and the “time of peak fluorescence signals after administration” value came to 1 h. Besides, in series [1] (setting [6]), the “distribution of ICG in the kidney and spleen” value is listed as “almost nonexistent”; the “distribution of ICG in the lung” value was “present at high concentrations particularly in the lung”. Moreover, the “boundary of cancer tissue identified by ICG versus H&E histology” value in the series with VX2 carcinoma [2] is “consistent with the histologically observed boundary of cancer”. In the series with VX2 carcinoma [2] (imaged 1 hour later), the “diameter of the cancer tissue negatively contrasted by ICG” value amounted to 2 mm and the “distribution of inhaled ICG in cancer tissue versus normal tissue” value is listed as “not distributed in the cancer tissue but stains the normal tissue only”. Also, the “distribution of ICG administered through respiration” value with lung cancer cells is “distributed through the lungs except for the lung cancer cells”. The “ICG concentration needed for accurate detection of the boundary of lung tumor” value in the series on VX2 carcinoma [3] (airway administration) is on record as at least 0.25 mg/kg. The “detection of boundary of cancer tissue” value in the series on VX2 carcinoma [3] (airway administration of ICG at 0.1, 0.25, 0.5 and 1 mg/kg) is recorded as “could be detected effectively”. The “lung tumor detection rate (TMDE) versus ICG concentration” value with VX2 carcinoma [3] (airway administration, 0.1-1 mg/kg) is recorded as “increased depending on the concentration of ICG”. Besides, in the series with VX2 carcinoma [4], the “cancer detection rate (TMDE) of respiration administration relative to intravenous administration” value is at least 2.5 times. Also, in the series with lung tumor (six lung tumor patients (Case 1-6, one value per patient), 0.75 mg/mL ICG via lobar bronchus 4 minutes by nebulizer), the TMDE was 2.8 (2×) and 2.7 and 3.3 and 2.6 and 3.4. Moreover, in the series with lung tumor (setting [7]), the “boundary between cancer tissue and normal tissue versus pathology” value is on record as “consistent with the pathological outcome for each patient”; the “distribution of inhaled ICG in human lungs” value is reported as “distributed only in the normal tissue of the lungs”.
